Legend:
[1] = test system: transformed strains bearing the zeocin-resistance gene (from S. hidustanus) expression cassette; assay: Zeocin sensitivity of transformed strains, spotted colonies; assay type: cell-based, Thraustochytrium sp. ONC-T18; details: 18 g/L sea salt
Protocol: (§1) A very small amount of inoculum of zeocin-resistant strains that had been transferred three times via colony passages on zeocin/ONC-T18-GM0 agar plates (as well as their parental strain or the wild type strain) was picked from colonies using a 10 μL pipette tip and re-suspended in 50 μL sterilized water in a 200 μL PCR tube. One μL of the cell suspension was spotted on ONC-T18-GM0 agar plates containing 18 g/L sea salt (15 g/L agar) and zeocin at a concentration ranging from 0 to 5000 μg/mL (Invitrogen, CA, USA). The diameters of the spotted colonies were measured on day 1, day 3, day 5, day 7, and day 8.

[2] = cited from earlier work
[3] = test system: wild type strains ONC-T18; assay: Transgene stability assay, growth on zeocin plates after six colony passages; assay type: cell-based, Thraustochytrium sp. ONC-T18; details: zeocin 200 μg/mL media
Description: Transgene stability is important for certain applications of genetic engineering in industrial microbial strain improvement programs where microorganisms are used in pharmaceutical or industrial processes, and where product quantity and quality are paramount. We therefore carried out transgene stability estimate assays of transformed ONC-T18 strains. As for the growth rate assays described in above, inocula of four strains of each transformation as well as their ancestor wild type strains were spotted on ONC-T18-GM0 agar plates in the absence of zeocin and incubated at 25° C. for seven days. (Each transformation had been performed using one of the five different plasmid constructs, each of which bears various zeocin-resistant gene expression cassettes driven by a combination of different promoters and terminators). Then, using the same method, strains were transferred on a new fresh ONC-T18-GM0 agar plate and incubated at 25° C. for 7 days; colony passages were carried out 6 times. Finally, strains were transferred back onto ONC-T18-GM0 agar plates either without or with zeocin at a concentration of 200 μg/mL media.

[4] = test system: Thraustochytrium sp. ONC-T18; assay: Effects of antibiotics on the growth of ONC-T18 on ONC-T18-GM0 agar plates; assay type: cell-based
Protocol: Thraustochytrium sp. ONC-T18 was grown on agar plates (20 g agar per liter ONC-T18-GM0). One loop of inoculum of ONC-T18 was inoculated into 50 mL of liquid ONC-T18-GM0, and the culture was incubated in a shaker incubator at 25° C. at 250 rpm for 36 hours. Half a milliliter of the culture was transferred into a 1.5 mL tube and vortexed at full speed for 30 seconds to break down cell clusters, then diluted in 50 mL sterilized water. One hundred microliters of the resulting solution was spread onto each ONC-T18-GM0 medium plate. Each plate contained one of various antibiotics at one of various concentrations. Plates were incubated at 25° C. and emergence and development of colonies were observed daily.

[5] = test system: Thraustochytrium sp. ONC-T18; assay: Effects of zeocin and salinity on colony numbers and colony diameters of ONC-T18; assay type: cell-based; details: for colony numbers: 10 days; for colony numbers / colony growth rates (diameter in mm): mean of two plates
Protocol: One hundred μL of ONC-T18 cell suspension diluted at 1:500 from a 2-day culture were spread onto ONC-T18-GM0 plates containing various concentrations of antibiotic zeocin and sea salt. Inoculated plates were incubated in a 25° C. incubator for 10 days. The numbers of the colonies on each plate were counted. […] In plates containing 8.5 g/L sea salt without zeocin, only one colony was observed. In plates containing 18 g/L sea salt without zeocin, colony numbers were similar to that of plates containing 35 g/L sea salt without zeocin. […] Therefore, for this work, 18 g/L sea salt was used to make ONC-T18-GM0 for selection of ONC-T18 transformants transformed with constructs bearing a zeocin-resistant gene expression cassette.

[6] = test system: wild type strain of ONC-T18; assay: Zeocin as mutagenic agent on ONC-T18 agar plates; assay type: cell-based, Thraustochytrium sp. ONC-T18
Protocol: The marine protist wild type strain of ONC-T18 was chosen as a model system to test if zeocin would be effective to induce mutagenesis in this strain. One full loop of the inocula of ONC-T18, growing in the agar plates containing ONC-T18-GM0 medium [5 g/L yeast extract, 5 g/L peptone, 10 g/L D(+)-glucose. 35 g/L artificial sea salt, 1.25 mg/L trace elements (5 g/L NaH2PO4.H2O, 3.15 g/L FeCl3.6H2O, 4.36 g/L Na2EDTA.2H2O, 0.6125 mg/L CuSO4.5H2O, 0.0597 g/L Na2MoO4.2H2O, 0.022 g/L ZnSO4.7H2O, 0.01 g/L CoCl2.6H2O, 0.18 g/L MnCl2.4H2O, 13 μg/L […], 2.7 mg/L NiSO4.6H2O, 1.84 mg/L Na3VO4 and 1.94 mg/L […]). 1.25 mg/L vitamins (1 mg/L vitamin B12, 1 mg/L biotin, 0.20 g/L thiamine HCl) and 20 g agar per liter], was inoculated into 50 mL liquid ONC-T18-GM0 medium, and incubated in a shaker incubator at 25° C. at 250 rpm for 36 hours. Half a milliliter of culture was transferred into a 1.5 mL tube and vortexed at full speed for 30 seconds, and then diluted in 50 mL sterilized water. One hundred microliters of the diluted inocula were respectively spread on the agar plates containing zeocin at various concentrations (0, 10, 30, 50, and 100 μg/mL). Plates were incubated at 25° C. incubator. The emergence and development of the colonies were observed daily. […] Under these conditions, zeocin was effective within the range of at least 10-200 μg/mL; higher concentrations may well also be effective. For example, concentrations in the range of 200-500 μg/mL or higher could work. […] Under the particular conditions utilized in the present Example, zeocin worked best at 50 μg/mL.

[7] = test system: parental strain (the wild type strain) ONC-T18; assay: Zeocin sensitivity of the parental (wild type) strain, spotted colonies; assay type: cell-based, Thraustochytrium sp. ONC-T18; details: ONC-T18-GM0 agar plates, 18 g/L sea salt, spotted cells
Protocol: as §1

[8] = agar plates, ONC-T18-GM0, 35 g/L artificial sea salt

Cc1c(N)nc([C@H](CC(N)=O)NC[C@H](N)C(N)=O)nc1C(=O)N[C@H](C(=O)N[C@H](C)[C@@H](O)[C@H](C)C(=O)N[C@H](C(=O)NCCC1=N[C@@H](c2nc(C(=O)NCCCCN=C(N)N)cs2)CS1)[C@@H](C)O)[C@@H](O[C@@H]1O[C@@H](CO)[C@@H](O)[C@H](O)[C@@H]1O[C@H]1O[C@H](CO)[C@@H](O)[C@H](OC(N)=O)[C@@H]1O)c1cnc[nH]1 [Zeocin, zeocin]
growth of transformed strains ([1]; zeocin 5000 μg/mL): most strains grew remarkably slower
growth of transformed strains ([1]; zeocin 30 to 1000 μg/mL): grew well
stability at high salt concentrations ([2]; Invitrogen): unstable
water solubility ([2]; InvivoGen): water soluble
growth of wild type strains [3]: none of the wild type strains were able to grow
effect on growth of ONC-T18 (in words) [4]: significantly inhibited the growth
zeocin concentration that completely inhibited growth of ONC-T18 ([5]; ONC-T18-GM0 agar plates containing 18 g/L sea salt): 30 µg/mL
zeocin concentration needed for complete inhibition of ONC-T18 ([5]; ONC-T18-GM0 agar plates containing 35 g/L sea salt): 100 µg/mL
colony numbers ([5]; salt 5 g/L, zeocin 10 μg/mL): 0
colony growth rates (diameter in mm) ([5]; salt 5 g/L, zeocin 10 μg/mL): 0 mm
colony numbers ([5]; salt 5 g/L, zeocin 30 μg/mL): 0
colony growth rates (diameter in mm) ([5]; salt 5 g/L, zeocin 30 μg/mL): 0 mm
colony numbers ([5]; salt 5 g/L, zeocin 50 μg/mL): 0
colony growth rates (diameter in mm) ([5]; salt 5 g/L, zeocin 50 μg/mL): 0 mm
colony numbers ([5]; salt 5 g/L, zeocin 100 μg/mL): 0
colony growth rates (diameter in mm) ([5]; salt 5 g/L, zeocin 100 μg/mL): 0 mm
colony numbers ([5]; salt 8.5 g/L, zeocin 10 μg/mL): 0
colony growth rates (diameter in mm) ([5]; salt 8.5 g/L, zeocin 10 μg/mL): 0 mm
colony numbers ([5]; salt 8.5 g/L, zeocin 30 μg/mL): 0
colony growth rates (diameter in mm) ([5]; salt 8.5 g/L, zeocin 30 μg/mL): 0 mm
colony numbers ([5]; salt 8.5 g/L, zeocin 50 μg/mL): 0
colony growth rates (diameter in mm) ([5]; salt 8.5 g/L, zeocin 50 μg/mL): 0 mm
colony numbers ([5]; salt 8.5 g/L, zeocin 100 μg/mL): 0
colony growth rates (diameter in mm) ([5]; salt 8.5 g/L, zeocin 100 μg/mL): 0 mm
colony numbers ([5]; salt 18 g/L, zeocin 10 μg/mL): 11
colony growth rates (diameter in mm) ([5]; salt 18 g/L, zeocin 10 μg/mL): 4.1 mm
colony numbers ([5]; salt 18 g/L, zeocin 30 μg/mL): 0
colony growth rates (diameter in mm) ([5]; salt 18 g/L, zeocin 30 μg/mL): 0 mm
colony numbers ([5]; salt 18 g/L, zeocin 50 μg/mL): 0
colony growth rates (diameter in mm) ([5]; salt 18 g/L, zeocin 50 μg/mL): 0 mm
colony numbers ([5]; salt 18 g/L, zeocin 100 μg/mL): 0
colony growth rates (diameter in mm) ([5]; salt 18 g/L, zeocin 100 μg/mL): 0 mm
colony numbers ([5]; salt 35 g/L, zeocin 10 μg/mL): 22.5
colony growth rates (diameter in mm) ([5]; salt 35 g/L, zeocin 10 μg/mL): 4.1 mm
colony numbers ([5]; salt 35 g/L, zeocin 30 μg/mL): 11
colony growth rates (diameter in mm) ([5]; salt 35 g/L, zeocin 30 μg/mL): 1.9 mm
colony numbers ([5]; salt 35 g/L, zeocin 50 μg/mL): 5
colony growth rates (diameter in mm) ([5]; salt 35 g/L, zeocin 50 μg/mL): 0.6 mm
colony numbers ([5]; salt 35 g/L, zeocin 100 μg/mL): 0
colony growth rates (diameter in mm) ([5]; salt 35 g/L, zeocin 100 μg/mL): 0 mm
concentration at which zeocin worked best as mutagen [6, 8]: 50 µg/mL
concentration range in which zeocin was effective as mutagen [6, 8]: 10 to 200 µg/mL
colonies seen per plate ([6]; zeocin 50 μg/mL, six days post inoculation): Only a few of colonies
sensitivity of ONC-T18 cells to zeocin ([6]; zeocin 100 μg/mL): highly sensitive
zeocin concentration on which the wild type strain grew [7]: ≤ 30 µg/mL

Source: patent US9873880B2, “Engineering microorganisms” (DSM NUTRITIONAL PRODUCTS AG, priority 2013, dated 2018)
